Results: patent publication US4588715A, “Heptenoic acid derivatives” (Sandoz, Inc., priority 1984, dated 1986)
Where “and” joins values, the source holds several entries; their conditions need not be identical. Equal values may be shown once. Read-outs that look alike come from different tables or passages of the source.

How the values were obtained:
[1] = system: Cholesterol Biosynthesis; experiment: Test B. In Vitro Cell Culture Cholesterol Biosynthesis Screen (Fu5AH rat hepatoma cell line); type: cell-based; conditions: Fu5AH rat hepatoma cells, [14C]acetate, 3 hours; for inhibition at 10 µM: concentration 10 μM; for inhibition at 1 µM: concentration 1 μM
Method: Test B. In Vitro Cell Culture Cholesterol Biosynthesis Screen
The cell culture is prepared as follows: Stock monolayer cultures of the Fu5AH rat hepatoma cell line (originally obtained from G. Rothblat; see Rothblat, Lipids 9, 526-535 (1974) are routinely maintained in Eagle's Minimum Essential Medium (EMEM) supplemented with 10% fetal bovine serum (FBS) in 75 cm^2. tissue culture flasks. For these studies, when the cultures reach confluence, they are removed by mild enzymatic treatment with 0.25% trypsin in Hanks' balanced salt solution (without calcium and magnesium). After centrifugation of the cell suspension and aspiration of the enzymatic solution, the cell pellet is resuspended in an appropriate volume of media for seeding into 60 mm. tissue culture dishes. The cultures are incubated at 37° C. in an atmosphere of high humidity and 5% carbon dioxide. When the cultures are confluent (approximately 5 days), they are ready for use. The culture media is aspirated from the dishes and replaced with 3 ml. of EMEM supplemented with 5 mg./ml. of delipidized serum protein (DLSP) prepared by the method of Rothblat et al., In Vitro 12, 554-557 (1976). […] Enhanced 3-hydroxy-3-methylglutaryl Coenzyme A reductase (HMG-CoA reductase) activity is measurable in the cells in response to the lack of exogenous sterol. Following approximately 24 hours incubation at 37° C. in the DLSP supplemented media, the assay is initiated by the addition of 3μCi of [^14 C]acetate and the test substances solubilized in dimethylsulfoxide (DMSO) or distilled water. Solvent controls and compactin-treated controls are always prepared. Triplicate 60 mm. tissue culture dishes are run for each group. After 3 hours incubation at 37° C., the cultures are examined microscopically using an inverted phase contrast microscope. Notations are made of any morphological changes which may have occurred in the cultures. The media is aspirated and the cell layer is gently washed twice with 0.9% sodium chloride solution (saline). The cell layer is then harvested in 3 ml. of 0.9% saline by gentle scraping with a rubber policeman and transferred to a clean glass tube with Teflon lined cap. The dishes are rinsed with 3 ml. of 0.9 % saline and rescraped, and the cells are combined with the first harvest. The tubes are centrifuged at 1500 r.p.m. for 10 minutes in an IEC PR-J centrifuge, and the supernatant is aspirated.
The cells are then extracted as follows: One ml. of 100% ethanol is added to the cell pellet followed by sonication for 10 seconds with a "LO" setting of 50 on a Bronwell Biosonik IV. One hundred μL. are taken for protein determination. One ml. of 15% potassium hydroxide (KOH) is added, and the samples are thoroughly vortexed. Saponification is accomplished by heating the ethanol-KOH treated samples at 60° C. for 60 minutes in a water bath. Following dilution of the samples with 2 ml. of distilled water, they are extracted three times with 7 ml. of petroleum ether. The petroleum ether extracts are then washed three times with 2 ml. of distilled water and finally taken to dryness under a stream of nitrogen.
The obtained samples are then analyzed by thin layer chromatography (TLC) as follows: Residues from the petroleum ether extraction are taken up in a small volume of hexane and spotted on silica gel 60 TLC plates (E. Merck). Development of the plates is carried out in a 150 parts by volume hexane: 50 parts by volume diethyl ether: 5 parts by volume glacial acetic acid solvent system using a three phase development procedure. Visualization is accomplished in an iodine vapor chamber. The plates are divided into five sections such that each section contains the molecules having the following approximate Rf values: section 1-0-0.4, section 2-0.4-0.55, section 3-0.55-0.7, section 4-0.7-0.9 and section 5-0.9-1.0. Section 2 contains the non-saponifiable sterols. The five sections of the TLC plates are scraped into scintillation vials. […]

[2] = biological target: T1, HMG-CoA reductase (Rattus norvegicus, UniProt P51639); experiment: Test A. In Vitro Microsomal Assay of HMG-CoA Reductase Inhibition; type: biochemical; conditions: saponified products M=Na, unsaponified products tested in DMA
T1 construct: the microsomes are the source of the HMG-CoA reductase enzyme; from tissue; host or cells: liver microsomes, male Sprague-Dawley rats
T1 sequence (P51639 1-887): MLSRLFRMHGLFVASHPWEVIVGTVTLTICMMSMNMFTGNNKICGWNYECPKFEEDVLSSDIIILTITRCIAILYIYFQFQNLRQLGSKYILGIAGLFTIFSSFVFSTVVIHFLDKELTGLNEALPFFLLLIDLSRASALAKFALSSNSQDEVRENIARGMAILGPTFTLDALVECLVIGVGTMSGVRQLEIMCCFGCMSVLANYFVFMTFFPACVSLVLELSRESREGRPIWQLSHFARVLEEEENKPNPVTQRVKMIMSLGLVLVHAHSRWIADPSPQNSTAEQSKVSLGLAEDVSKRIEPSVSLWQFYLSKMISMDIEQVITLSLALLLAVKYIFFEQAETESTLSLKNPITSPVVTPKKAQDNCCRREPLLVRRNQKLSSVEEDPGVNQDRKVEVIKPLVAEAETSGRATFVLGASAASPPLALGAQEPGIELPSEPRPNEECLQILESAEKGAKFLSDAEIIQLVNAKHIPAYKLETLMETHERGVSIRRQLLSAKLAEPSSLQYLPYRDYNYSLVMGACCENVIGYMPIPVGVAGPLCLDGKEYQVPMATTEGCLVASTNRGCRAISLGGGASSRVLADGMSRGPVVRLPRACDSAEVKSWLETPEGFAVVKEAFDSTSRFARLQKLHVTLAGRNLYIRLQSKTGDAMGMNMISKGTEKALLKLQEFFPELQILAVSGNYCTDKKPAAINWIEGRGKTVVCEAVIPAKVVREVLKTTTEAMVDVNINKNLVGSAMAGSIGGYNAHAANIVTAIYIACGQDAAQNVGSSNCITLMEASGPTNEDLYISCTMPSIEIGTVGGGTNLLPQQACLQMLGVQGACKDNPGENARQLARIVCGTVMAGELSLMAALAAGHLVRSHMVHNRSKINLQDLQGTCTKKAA
Method: Test A. In Vitro Microsomal Assay of HMG-CoA Reductase Inhibition
200 μl. aliquots (1.08-1.50 mg./ml.) of rat liver microsomal suspensions, freshly prepared from male Sprague-Dawley rats (150-225 g. body weight), in Buffer A with 10 mmol. dithiothreitol are incubated with 10 μl. test substance dissolved in dimethylacetamide and assayed for HMG-CoA reductase activity as described by Ackerman et al., J. Lipid Res. 18,408-413 (1977). In the assay the microsomes are the source of the HMG-CoA reductase enzyme which catalyzes the reduction of HMG-CoA to mevalonate. The assay employs a chloroform extraction to separate the product, [^14 C]mevalonolactone, formed by the HMG-CoA reductase reaction from the subsubstrate, [^14 C]HMG-CoA. [^3 H]mevalonolactone is added as an internal reference. Inhibition of HMG-CoA reductase is calculated from the decrease in specific activity [^14 C/^3 H]mevalonate) of test groups compared to controls.
IC50 is the concentration of the test substance in the assay system

[3] = system: Cholesterol Biosynthesis; experiment: Test C: In Vivo Cholesterol Biosynthesis Inhibition Tests; design: species or system male Wistar Royal Hart rats; conditions: for ED50: Rattus norvegicus
Method: Test C: In Vivo Cholesterol Biosynthesis Inhibition Tests: In vivo studies utilize male Wistar Royal Hart rats weighing 150±20 g. which have been kept for 7-10 days on an altered light cycle (6:30 A.M.-6:30 P.M. dark) housed two per cage and fed powdered Purina Rat Chow and water ad libitum. Three hours before the diurnal maximum of cholesterol synthesis at mid-dark, the rats are administered the test substances dissolved or as a suspension in 0.5% carboxymethylcellulose in a volume of 1 ml./100 g. body weight. Controls receive vehicle alone. One hour after receiving the test substance, the rats are injected intraperitoneally with about 25 μCi/100 g. body weight of sodium [1-^14 C]acetate 1-3 mCi/mmol. Two hours after mid-dark, blood samples are obtained under sodium hexobarbitol anesthesia and the serum separated by centrifugation.
Serum samples are saponified and neutralized, and the 3β-hydroxy sterols are precipitated with digitonin basically as described by Sperry et al., J. Biol. Chem. 187,97 (1950). The [^14 C]digitonides are then counted by liquid scintillation spectrometry. After correcting for efficiencies, the results are calculated in nCi (nanocuries) of sterol formed per 100 ml. of serum. Inhibition of sterol synthesis is calculated from the reduction in the nCi of sterols formed from test groups compared to controls.

SMILES | inhibition at 10 µM [1] | IC50 ([2]; IC50, rat liver microsomes) | further results
C[Si](c1ccccc1)(c1ccccc1)c1ccccc1/C=C/[C@@H]1C[C@@H](O)CC(=O)O1 (relative stereo) [Example 3 (Ia"'), 4-Hydroxy-6{2-[2-(methyldiphenylsilyl)phenyl]ethenyl}-2H-tetrahydropyran-2-one(trans,trans)] | 74% |  | 
C[Si](C)(c1ccccc1)c1ccccc1/C=C/[C@@H]1C[C@@H](O)CC(=O)O1 (relative stereo) [Example 4 (Ia"'), 4-Hydroxy-6{2-[2-(dimethylphenylsilyl)phenyl]ethenyl}-2H-tetrahydropyran-2-one] | 56% |  | 
CCOC(=O)C[C@H](O)C[C@H](O)/C=C/c1c(C)cc(C)cc1[Si](C)(C)c1ccccc1 (relative stereo) [Example 5a (Ia')] |  | 14.7 µM | inhibition at 1 µM [1]: 47%
CCOC(=O)C[C@H](O)C[C@H](O)/C=C/c1c(C)cc(OC)cc1[Si](C)(C)c1ccccc1 (relative stereo) [Example 5e (Ia')] | 28% |  | 
Cc1cc(C)c(/C=C/[C@@H]2C[C@@H](O)CC(=O)O2)c([Si](C)(C)c2ccccc2)c1 (relative stereo) [Example 6a (Ia"')] | 73% |  | 
Cc1cc(C)c(/C=C/[C@@H](O)C[C@@H](O)CC(=O)O)c([Si](C)(C)c2ccccc2)c1 (relative stereo) [Example 6a (Ia^s)] |  | 6.9 µM | 
Cc1cc(Cl)cc([Si](C)(C)c2ccccc2)c1/C=C/[C@@H]1C[C@@H](O)CC(=O)O1 (relative stereo) [Example 6b (Ia"')] |  | 16.4 µM | 
Cc1cc(Cl)cc([Si](C)(C)c2ccccc2)c1/C=C/[C@@H](O)C[C@@H](O)CC(=O)O (relative stereo) [Example 6b (Ia^s)] |  | 17.1 µM and 14.2 µM | 
Cc1cccc([Si](C)(C)c2ccccc2)c1/C=C/[C@@H]1C[C@@H](O)CC(=O)O1 (relative stereo) [Example 6g (Ia"')] | 65% | 27.2 µM | % Inhibition ([3]; dose 48 mg/kg, serum sterol synthesis, rats): 57%
Cc1cccc([Si](C)(C)c2ccccc2)c1/C=C/[C@@H](O)C[C@@H](O)CC(=O)O (relative stereo) [Example 6g (Ia^s)] |  | 4.3 µM | 
CCOC(=O)C[C@H](O)C[C@H](O)/C=C/c1c(C)cc(Cl)cc1[Si](C)(c1ccccc1)c1ccccc1 (relative stereo) [Example 7a (Ia')] | 17% |  | 
Cc1cc(Cl)cc([Si](C)(c2ccccc2)c2ccccc2)c1/C=C/[C@@H]1C[C@@H](O)CC(=O)O1 (relative stereo) [Example 8a (Ia"')] | 33% |  | 
Cc1cccc([Si](C)(c2ccccc2)c2ccccc2)c1/C=C/[C@@H](O)C[C@@H](O)CC(=O)O (relative stereo) [Example 8b (Ia^s)] |  | 52.4 µM | 
CCOC(=O)C[C@H](O)C[C@H](O)/C=C/c1c(C)ccc(C)c1[Si](C)(C)c1ccccc1 (relative stereo) [Example 9 (Ib'), Ethyl 7-[3,6-dimethyl-(2-dimethylphenylsilyl)-phenyl]-3,5-dihydroxy hept-6-enoate, (erythro,trans)] |  | 28.1 µM | inhibition at 1 µM [1]: 19%
Cc1ccc(C)c([Si](C)(C)c2ccccc2)c1/C=C/[C@@H]1C[C@@H](O)CC(=O)O1 (relative stereo) [Example 10 (Ib"'), 6-{2-[3,6-dimethyl-2-(dimethylphenylsilyl)phenyl]ethenyl}4-hydroxy-tetrahydro-2H-pyran-2-one (trans,trans)] | 63% | 24.4 µM | 
Cc1ccc(C)c([Si](C)(C)c2ccccc2)c1/C=C/[C@@H](O)C[C@@H](O)CC(=O)O (relative stereo) [Example 10 (Ib^s)] |  | 9 µM | 
CC[C@H](C)C(=O)O[C@H]1C[C@@H](C)C=C2C=C[C@H](C)[C@H](CC[C@@H]3C[C@@H](O)CC(=O)O3)[C@H]21 [Mevinolin] |  |  | ED50 [3]: 0.41 mg/kg
CC[C@H](C)C(=O)O[C@H]1CCC=C2C=C[C@H](C)[C@H](CC[C@@H]3C[C@@H](O)CC(=O)O3)[C@H]21 [compactin, reference compound] |  |  | IC50 ([2]; rat liver microsomes, read-out: IC50): 0.8 µM; inhibition at 0.08 µM ([1]; concentration 0.08 μM): 50%; ED50 ([3]; standard, serum sterol synthesis, rats, read-out: ED50): 3.5 mg/kg
